Test results: PubChem BioAssay (NCI)
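In this assay, cells in 96-well plates receive the compound at five concentrations for 48 hours. Endpoints are linearly interpolated between the surrounding concentrations. Abbreviation: GI50, concentration required for 50% inhibition of growth. Definition used: TGI = concentration required for complete inhibition of growth.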

Tests used:
Assay in all cases: DTP human tumour cell line panel, 48 h
786-0 renal = test system: 786-0 renal
UACC-62 melanoma = test system: UACC-62 melanoma
NCI-H522 lung = test system: NCI-H522 lung
HCT-116 colon = test system: HCT-116 colon
RPMI-8226 leukemia = test system: RPMI-8226 leukemia
MDA-MB-231 breast = test system: MDA-MB-231 breast
ACHN renal = test system: ACHN renal
CCRF-CEM leukemia = test system: CCRF-CEM leukemia
K-562 leukemia = test system: K-562 leukemia
SK-MEL-28 melanoma = test system: SK-MEL-28 melanoma
MCF7 breast = test system: MCF7 breast
MOLT-4 leukemia = test system: MOLT-4 leukemia
M14 melanoma = test system: M14 melanoma
COLO 205 colon = test system: COLO 205 colon
OVCAR-5 ovarian = test system: OVCAR-5 ovarian
A549 NSCLC = test system: A549 NSCLC
RXF 393 renal = test system: RXF 393 renal
OVCAR-3 ovarian = test system: OVCAR-3 ovarian
NCI-H226 lung = test system: NCI-H226 lung
SF-268 CNS = test system: SF-268 CNS
OVCAR-4 ovarian = test system: OVCAR-4 ovarian
HCC-2998 colon = test system: HCC-2998 colon
HS 578T breast = test system: HS 578T breast
SK-MEL-2 melanoma = test system: SK-MEL-2 melanoma
TK-10 renal = test system: TK-10 renal
T-47D breast = test system: T-47D breast
SF-295 CNS = test system: SF-295 CNS
NCI/ADR-RES ovarian = test system: NCI/ADR-RES ovarian
NCI-H23 lung = test system: NCI-H23 lung

O=c1[nH]c2ccc(N=Cc3c(O)[nH]c4ccccc34)cc2[nH]1
GI50 (786-0 renal): > 25 µM | TGI (786-0 renal): > 25 µM | GI50 (UACC-62 melanoma): > 25 µM | TGI (UACC-62 melanoma): > 25 µM | GI50 (NCI-H522 lung): > 25 µM | TGI (NCI-H522 lung): > 25 µM | GI50 (HCT-116 colon): > 25 µM | TGI (HCT-116 colon): > 25 µM | GI50 (RPMI-8226 leukemia): > 25 µM | TGI (RPMI-8226 leukemia): > 25 µM | GI50 (MDA-MB-231 breast): > 25 µM | TGI (MDA-MB-231 breast): > 25 µM | GI50 (ACHN renal): > 25 µM | TGI (ACHN renal): > 25 µM | GI50 (CCRF-CEM leukemia): 24.2 µM | TGI (CCRF-CEM leukemia): > 25 µM | GI50 (K-562 leukemia): > 25 µM | TGI (K-562 leukemia): > 25 µM | GI50 (SK-MEL-28 melanoma): > 25 µM | TGI (SK-MEL-28 melanoma): > 25 µM | GI50 (MCF7 breast): > 25 µM | TGI (MCF7 breast): > 25 µM | GI50 (MOLT-4 leukemia): > 25 µM | TGI (MOLT-4 leukemia): > 25 µM | GI50 (M14 melanoma): > 25 µM | TGI (M14 melanoma): > 25 µM | GI50 (COLO 205 colon): > 25 µM | TGI (COLO 205 colon): > 25 µM | GI50 (OVCAR-5 ovarian): > 25 µM | TGI (OVCAR-5 ovarian): > 25 µM | GI50 (A549 NSCLC): > 25 µM | TGI (A549 NSCLC): > 25 µM | GI50 (RXF 393 renal): > 25 µM | TGI (RXF 393 renal): > 25 µM | GI50 (OVCAR-3 ovarian): > 25 µM | TGI (OVCAR-3 ovarian): > 25 µM | GI50 (NCI-H226 lung): > 25 µM | TGI (NCI-H226 lung): > 25 µM | GI50 (SF-268 CNS): > 13.8 µM | TGI (SF-268 CNS): > 25 µM | GI50 (OVCAR-4 ovarian): > 25 µM | TGI (OVCAR-4 ovarian): > 25 µM | GI50 (HCC-2998 colon): > 25 µM | TGI (HCC-2998 colon): > 25 µM | GI50 (HS 578T breast): > 6.4 µM | TGI (HS 578T breast): > 25 µM | GI50 (SK-MEL-2 melanoma): > 25 µM | TGI (SK-MEL-2 melanoma): > 25 µM | GI50 (TK-10 renal): > 25 µM | TGI (TK-10 renal): > 25 µM | GI50 (T-47D breast): > 25 µM | TGI (T-47D breast): > 25 µM | GI50 (SF-295 CNS): > 25 µM | TGI (SF-295 CNS): > 25 µM | GI50 (NCI/ADR-RES ovarian): > 25 µM | TGI (NCI/ADR-RES ovarian): > 25 µM | GI50 (NCI-H23 lung): > 25 µM | TGI (NCI-H23 lung): > 25 µM
